Converted amounts (≈) assume the structure as drawn. Counter-ions that a name gives are not always drawn.
What was measured:
[1] = test system: Slc:ddy five week male mice; experiment: acute toxicity, intravenous, mice; assay type: in vivo; details: for acute toxicity result compared with the table above: stated in words
Method: A solution of 5-amino-7-[4-(R)-(1-aminocyclopropyl)-3-(S)-fluoro-1-pyrrolidinyl]-6-fluoro-1-[2-(S)-fluoro-1-(R)-cyclopropyl]-1,4-dihydro-8-methyl-4-oxoquinoline-3-carboxylic acid (abbreviated as cis) hydrochloride of Example 15 or 5-amino-7-[4-(R)-(1-aminocyclopropyl)-3-(R)-fluoro-1-pyrrolidinyl]-6-fluoro-1-[2-(S)-fluoro-1-(R)-cyclopropyl]-1,4-dihydro-8-methyl-4-oxoquinoline-3-carboxylic acid (abbreviated as trans) hydrochloride in distilled water for injection was administered intravenously to Slc:ddy five week male mice (five mice per group) and the symptoms are observed.

[2] = test system: Ps. maltophilia, IID-1275; experiment: antimicrobial activity (MIC), standard method of the Japan Society of Chemotherapy; assay type: cell-based; details: for MIC: Stenotrophomonas maltophilia, IID1275, IID-1275 (Table 5: X. maltophilia, IID-1275), read-out: minimum inhibitory concentration (MIC)
Method: (§1) Examples of the first and second aspects of the present invention are given below by way of illustration and not by way of limitation. In this regard, the antibacterial and antimicrobial activities of the compounds of interest were measured in accordance with the standard method specified by the Japan Society of Chemotherapy. The results are shown in Tables 1 to 5 as a minimum inhibitory concentration (MIC, μg/ml). Unless otherwise indicated, all percents (%) are by weight.

E. coli, NIHJ = experiment: as above; assay type: cell-based; details: Escherichia coli, read-out: minimum inhibitory concentration (MIC)
Method: as §1

[3] = 150 mg/kg, *: died immediately after administration, test stopped when second mouse died

Row | Structure (SMILES) | acute toxicity result compared with the table above ([1]; 150 mg/kg) | MIC [2] [µg/mL] | also measured
1 | Cc1c(N2C[C@@H](CO)[C@@H](C3(N)CC3)C2)c(F)c(N)c2c(=O)c(C(=O)O)cn(C3CC3)c12 (relative stereo) [Example 14, 5-Amino-7-[cis-4-(1-aminocyclopropyl)-3-hydroxymethyl-1-pyrrolidinyl]-1-cyclopropyl-6-fluoro-1,4-dihydro-8-methyl-4-oxoguinoline-3-carboxylic acid] | same result |  | 
2 | Cc1c(N2C[C@@H](F)[C@@H](C3(N)CCC3)C2)c(F)c(N)c2c(=O)c(C(=O)O)cn([C@@H]3C[C@@H]3F)c12 (single isomer, unassigned; isomer b) [Example 13] | same result |  | minimum inhibitory concentration (MIC) ([2]; IID-1275 (Table 5: X. maltophilia, IID-1275)): 0.20 µg/mL (≈ 0.444 µM)
3 | Cc1c(N2C[C@H](F)[C@@H](C3(N)CC3)C2)c(F)c(N)c2c(=O)c(C(=O)O)cn([C@@H]3C[C@@H]3F)c12 [Example 5, 5-Amino-7-[4-(R)-(1-aminocyclopropyl)-3-(R)-fluoro-1-pyrrolidinyl]-6-fluoro-1-[2-(S)-fluoro-1-(R)-cyclopropyl]-1,4-dihydro-8-methyl-4-oxoquinoline-3-carboxylic acid hydrochloride] |  |  | Number of death ([1]; 50 mg/kg): 0/5; Number of death ([1]; 100 mg/kg, *: died immediately after administration, test stopped when second mouse died): 2/2; Number of death [1, 3]: 2/2
4 | COc1c(N2C[C@@H](F)[C@@H](C3(N)CC3)C2)c(F)cc2c(=O)c(C(=O)O)cn([C@@H]3C[C@@H]3F)c12 [Example 12, 7-[4-(R)-(1-Aminocyclopropyl)-3-(S)-fluoro-1-pyrrolidinyl]-6-fluoro-1-[2-(S)-fluoro-1-(R)-cyclopropyl]-1,4-dihydro-8-methoxy-4-oxoguinoline-3-carboxylic acid] | same result |  | MIC (E. coli, NIHJ): ≤ 0.013 µg/mL
5 | Cc1c(N2C[C@@H](F)[C@@H](C3(N)CC3)C2)c(F)c(N)c2c(=O)c(C(=O)O)cn([C@@H]3C[C@@H]3F)c12 [Example 15, 5-Amino-7-[4-(R)-(1-aminocyclopropyl)-3-(S)-fluoro-1-pyrrolidinyl]-6-fluoro-1-[2-(S)-fluoro-1-(R)-cycloproyl]-1,4-dihydro-8-methyl-4-oxoguinoline-3-carboxylic acid hydrochloride] |  | 0.05 | Number of death [1, 3]: 0/5
6 | COc1c(N2C[C@@H](F)[C@@H](C3(N)CC3)C2)c(F)c(N)c2c(=O)c(C(=O)O)cn([C@@H]3C[C@@H]3F)c12 [Example 16, 5-Amino-7-[4-(R)-(1-aminocyclopropyl)-3-(S)-fluoro-1-pyrrolidinyl]-6-fluoro-1-[2-(S)-fluoro-1-(R)-cyclopropyl]-1,4-dihydro-8-methoxy-4-oxoquinoline-3-carboxylic acid] | same result | 0.2 (≈ 0.442 µM) | 
7 | C[C@H]1COc2c(N3C[C@@H](F)[C@@H](C4(N)CC4)C3)c(F)cc3c(=O)c(C(=O)O)cn1c23 [Example 17, 10-[4-(R)-(1-Aminocyclopropyl)-3-(S)-fluoro-1-pyrrolidinyl]-9-fluoro-2,3-dihydro-3-(S)-methyl-7-oxo-7H-pyrido[1,2,3-de][1,4]benzoxazine-6-carboxylic acid] | same result |  | 
8 | C[C@H]1COc2c(N3C[C@@H](F)[C@@H](C4(N)CC4)C3)c(F)cc3c(=O)c(C(=O)O)cn1c23.Cl [Example 19, 10-[4-(R)-(1-Aminocyclopropyl)-3-(S)-fluoro-1-pyrrolidinyl]-9-fluoro-2,3-dihydro-3-(S)-methyl-7-oxo-7H-pyrido[1,2,3-de][1,4]benzoxazine-6-carboxylic acid hydrochloride] |  | 0.39 | 
9 | C[C@H]1COc2c(N3C[C@@H](F)[C@@H](C4(N)CC4)C3)c(F)c(N)c3c(=O)c(C(=O)O)cn1c23 [Example 21, 8-Amino-10-[4-(R)-(1-aminocyclopropyl)-3-(S)-fluoro-1-pyrrolidinyl]-9-fluoro-2,3-dihydro-3-(S)-methyl-7-oxo-7H-pyrido[1,2,3]-de[1,4]benzoxazine-6-carboxylic acid] | same result | 0.39 (≈ 0.928 µM) | 

From patent US6184388A, “Substituted aminocycloalkylpyrrolidine derivatives and cis-substituted aminocycloalkylpyrrolidine derivatives” (Daiichi Pharmaceutical Co., Ltd., priority 1995, dated 2001)
